{"source": "patent US9237744B2", "about": "“Preservative solution for cells, tissues and organs containing rare sugar and preservative method thereof” (NATIONAL UNIVERSITY CORPORATION KAGAWA UNIVERSITY, priority 2004, dated 2016)", "key": {"[1]": {"tested_on": "rat kidney", "details": "pre-administration, cited from earlier work"}, "[2]": {"tested_on": "CINC-1", "test": "Renal ischemic reperfusion model, CINC-1 protein amount", "type": "in vivo, rat", "details": "400 mg/kg intravenously 30 minutes before renal ischemia, 45 minutes clamp (FIG. 12)", "experimental": "Object: male rats with a body weight of 200˜250 g Experimental method: After anesthetization of a rat with nenbutal, a renal ischemic model is prepared. Renal ischemic model: After extraction of the right kidney, the left kidney blood vessel is clamped for 45 minutes. 400 mg/kg of the solution is intravenously administered to the D-allose group 30 minutes before the renal ischemia. A raw feed is administered to the control group. Estimation: Change with time of a CINC-1 protein amount and MPO as an index of accumulation of leukocytes after ischemic reperfusion"}, "[3]": {"tested_on": "Hela, OVCAR-3, HaCaT, HFB and NIH3T3 cells", "test": "Survival rate of cells after freeze-preservation at high sugar concentration, trypan blue (Example 2)", "type": "cell-based, human, mouse", "experimental": "1. Cells used: Hela (human cervical cancer), OVCAR-3 (human ovarian cancer), HaCaT (human skin keratinocyte), HFB (human fibroblast) and NIH3T3 (mouse fibroblast). Saccharides D-allose and the like were added to culture medium, Cell Banker (commercially available preservative solution) and DMSO at concentrations of 0.2, 0.4, 0.6, 0.8 and 1M. Monosaccharides such as D-glucose, D-fructose, D-mannose and D-galactose which are present in nature in large quantities and D-allose, D-altrose, D-psicose, L-psicose, D-sorbose, L-sorbose, D-tagatose, L-tagatose and L-fructose as rare sugars were used. Further, trehalose as disaccharide was used. The cells frozen with D-allose were freeze-preserved at −80° C. and in liquid nitrogen for 24 hours, 1 week and 4 weeks. 1) Survival rate of cells: The cells were thawed, and the survival rate was estimated by a trypan blue dying method."}, "[4]": {"tested_on": "Hela, OVCAR-3, HaCaT, HFB and NIH3T3 cells", "test": "Cell growth after thawing of cells freeze-preserved at optimum concentrations, MTT assay (Example 2)", "type": "cell-based, human, mouse", "experimental": "1. Cells used: Hela (human cervical cancer), OVCAR-3 (human ovarian cancer), HaCaT (human skin keratinocyte), HFB (human fibroblast) and NIH3T3 (mouse fibroblast). Saccharides D-allose and the like were added to culture medium, Cell Banker (commercially available preservative solution) and DMSO at concentrations of 0.2, 0.4, 0.6, 0.8 and 1M. Monosaccharides such as D-glucose, D-fructose, D-mannose and D-galactose which are present in nature in large quantities and D-allose, D-altrose, D-psicose, L-psicose, D-sorbose, L-sorbose, D-tagatose, L-tagatose and L-fructose as rare sugars were used. Further, trehalose as disaccharide was used. The cells frozen with D-allose were freeze-preserved at −80° C. and in liquid nitrogen for 24 hours, 1 week and 4 weeks. 2) Cell growth: The cells were freeze-preserved with D-allose and trehalose at optimum concentrations for 24 hours, thawed, and spread on a 96-well plate such that the concentration was 0.5-1×10^4 cells/well/0.1 ml. After a prescribed period of time, the cell growth was measured by MTT assay."}, "[5]": {"tested_on": "ICAM-1 mRNA", "test": "Kidney preservation in UW solution at 4° C., ICAM-1 mRNA by northern blot", "parameters": "species or system rat", "details": "D-allose 5 mg/ml in UW solution, clearly observed after 12 hours and 24 hours (FIG. 10)", "experimental": "Object: male rats, 200 g to 280 g Preparations of experiment: A rat is fasted 12 hours before the experiment. After the rat is anesthetized by intraperitoneal administration of nenbutal, the stomach is shaved with an electric razor, cleaned with ether, and cut open. The abdominal aorta upper the renal artery is clamped. The UW solution is adapted to be perfused from the abdominal aorta under the renal artery. Grouping: Control group: UW solution only, D-allose group: D-allose is added to the UW solution at a concentration of 5 mg/ml. Experimental method: In the control group and the D-allose group, the kidney is withdrawn after perfusion of the UW solution in each group, put in the UW solution of each of the control group and the D-allose group, and preserved at 4° C. in pre or for 12, 24, 48 or 72 hours. Estimation: Expression of detrimental factor ICAM-1 and regeneration factor EGF in mRNA was examined by northern blot."}, "[6]": {"tested_on": "NIH3T3, OVCAR-3, HaCaT and HFB cells", "test": "Cell preservation with DMSO plus rare sugar, growth after thawing (Example 1)", "type": "cell-based, human, mouse", "details": "DMSO decreased to 1%, sub-optimal condition (FIG. 4, FIG. 5)", "experimental": "1. Cells used: Hela (human cervical cancer), OVCAR-3 (human ovarian cancer), HuH-7 (human liver cancer), HaCaT (human skin keratinocyte), HFB (human fibroblast) and NIH3T3 (mouse fibroblast). Saccharides D-allose and the like were added to culture medium, Cell Banker (commercially available preservative solution) and DMSO at concentrations of 25 mM and 50 mM. Monosaccharides such as D-glucose, D-fructose, D-mannose and D-galactose which are present in nature in large quantities and D-allose, D-psicose, D-altrose, allitol, D-talitol and L-sorbose as rare sugars were used. Further, trehalose as disaccharide was used. The cells were preserved for 24 hours by being frozen at −80° C. 2) Cell growth: One day later, the cells were thawed, and 0.25˜2×10^4 cells/well were spread on 96-well plate with 0.1 mL medium. After a prescribed period of time, the cell growth was measured by MTT assay. 4) Since DMSO (dimethyl sulfoxide) is also commonly added to culture medium at a rate of 10% and used in freeze-preservation, the effect of rare sugar was examined in the system of DMSO. The difference in effect of rare sugar is hardly observed in a system using 10% DMSO, the effect of cell preservation was comparatively examined under a sub-optimal condition by decreasing the concentration of DMSO to 1%. NIH3T3, OVCAR-3, HaCaT and HFB cells and the like were used. […]"}}}
{"smiles": "O=C[C@H](O)[C@H](O)[C@H](O)[C@H](O)CO", "note": "[D-allose]", "values": [{"measurement": "activation and floating of neutrophils after ischemic reperfusion", "setting": "[1]; rat kidney (WO 03/097820)", "value": "inhibits"}, {"measurement": "functional disorder of the kidney", "setting": "[1]; rat kidney ischemic reperfusion (WO 03/097820)", "value": "decreases"}, {"measurement": "CINC-1 protein amount after ischemic reperfusion", "setting": "[2]", "value": "significantly decreased"}, {"measurement": "cell survival rate after thawing in comparison with other rare sugars", "setting": "[3]; 0, 0.2, 0.4, 0.6, 0.8 and 1M, comparison under way, tendency", "value": "the highest"}, {"measurement": "survival rate of cells", "setting": "[3]; D-allose added to 10% DMSO and Cell Banker, compared with DMSO and Cell Banker", "value": "the higher the concentration of D-allose, the lower the survival rate of cells"}, {"measurement": "optimum preservation temperature", "setting": "[3]; D-allose-containing freeze-preservative agent", "value": "−80", "unit": "°C"}, {"measurement": "survival rate of cells with extended time of freeze-preservation", "setting": "[3]; freeze-preservation extended by one month", "value": "not changed so much"}, {"measurement": "number of cells survived (trypan blue dying)", "setting": "[3]; sugar-containing medium in comparison with medium alone (FIG. 7)", "value": "large"}, {"measurement": "survival rate by temperature of freeze-preservation", "setting": "[3]; −80° C. versus liquid nitrogen", "value": "much higher"}, {"measurement": "growth rate of cells after thawing", "setting": "[4]; freeze-preserved 24 hours at optimum concentration, versus other cases (FIG. 8)", "value": "higher in growth rate"}, {"measurement": "functional impairment of frozen cells", "setting": "[4]; versus commercially available Cell Banker cell preservative solution", "value": "less impaired functionally"}, {"measurement": "expression of ICAM-1 mRNA during kidney preservation", "setting": "[5]", "value": "reduced"}, {"measurement": "effect of preservation with DMSO", "setting": "[6]", "value": "improved"}]}
